Source: patent publication US20140045856A1, “4-Methyl-2,3,5,9,9b-pentaaza-cyclopenta[a]naphthalenes” (BOEHRINGER INGELHEIM INTERNATIONAL GMBH, priority 2012, published 2014)

Legend:
PDE2A [1] = target: T1, PDE2A (Homo sapiens, UniProt O00408); assay: Radioactive PDE2 assay ([3H]cAMP SPA); format: biochemical
Procedure: a) Radioactive PDE2 Assay Protocol:
PDE 2A protein is expressed upon baculovirus infection in SF9 cells. The cells have been incubated upon infection for ˜3 days and protein production was confirmed by Western Blot. The cells were collected by centrifugation and the pellet frozen in liquid nitrogen before it was resuspended in PBS containing 1% Triton X-100 and protease inhibitors.
(§1) Into a 384 well plate (OptiPlate, white), the following components are pipetted (either manually or using automated pipetting devices):
(§2) 20 μl test-compound solution (test compound diluted in assay buffer at twofold the desired concentration)
+10 μl PDE 2A preparation (enzyme diluted in assay buffer to a concentration of 0.5 ng/μl protein)
+10 μl [^3H]cAMP (diluted in assay buffer to a concentration of 80 nM cAMP)
positive control: no inhibitor, DMSO at the concentration as used in the compound dilutions
negative control: no PDE 2 (SF9 lysate instead of SF9/PDE 2A lysate)
Calculation of % Inhibition:
(§3) The activity of the positive control (minus the negative control=background) is set to 100% and activity in the presence of compound is expressed relative to these 100%.
(§4) IC50 are calculated with GraphPadPrism or other suited software setting the positive control as 100 and the negative control as 0. For calculation of IC50 usually 11 dilutions of the test compound are selected.

PDE 10A = PDE 10A (Homo sapiens, UniProt Q9Y233); assay: Radioactive PDE10 assay ([3H]cAMP SPA); format: biochemical
Procedure: as §3, §4
protein concentration: 75 pg/μl
In detail the protocol is as follows:
as §1, §2
+10 μl PDE 10A preparation (enzyme diluted in assay buffer to a concentration of 0.3 ng/μl protein)
+10 μl cAMP tracer (diluted in assay buffer to a concentration of 80 nM cAMP, specific activity ˜4 mCi/l)
After addition of all 3 components the plates are shortly spun and incubated at room temperature for 60 min. The reaction is stopped by the addition of 20 μl Yttrium SPA PDE Beads containing 18 mM zinc sulphate in water
PDE 10A protein is expressed upon baculovirus infection in SF9 cells. The cells have been incubated upon infection for ˜3 days and protein production was confirmed by Western Blot. The cells were collected by centrifugation and the pellet frozen in liquid nitrogen before it was resuspended in PBS containing 1% Triton X-100 and protease inhibitors.

PDE2A [2] = target: T1, PDE2A; assay: PDE 2A assay with fluorescent substrate (IMAP, fluorescence polarization); format: biochemical; settings: read-out: PDE2 IC50
Source text: (§5) c) Phosphodiesterase (PDE) 2A and 10 Assay with Fluorescent Substrate
(§6) The PDE reaction cleaves cAMP to AMP. The IMAP system (Molecular Device) using fluorescence polarization (FP) as detection principle was used to measure enzyme activity. A fluorescent labeled cAMP was used as substrate for the reaction, generating a labeled AMP. The fluorescent AMP binds specifically to the large M(III)-based nano-particles which reduces the rotational speed of the substrate and thus increases its polarization.
(§7) The inhibition of PDE 2A or 10 enzyme activity was assessed using IMAP-Phosphodiesterase-cAMP fluorescence labeled substrate (Molecular Devices, Order No. R7506), IMAP TR-FRET screening express (Molecular Devices, Order No. R8160, the TR-FRET component will not be used) and PDE 2A or PDE10 protein expressed upon baculovirus infection in SF9 cells. The cells were incubated after infection for ˜3 days and protein production was confirmed by Western Blot. The cells were collected by centrifugation and the pellet frozen in liquid nitrogen before it was resuspended in PBS containing 1% Triton X-100 and protease inhibitors.
(§8) All reactions were performed in 384 well plates, Perkin Elmer black optiplates and IMAP reaction buffer with 0.1% Tween20 (kit component)
(§9) Compounds were serial diluted in DMSO. With an intermediate dilution step with reaction buffer DMSO concentration was reduced to achieve 1% DMSO in the assay reaction. Setup of the assay started with 10 μl enzyme (˜10 ng/well, depending on prep. batch), 5 μl compound, reaction was started by addition of 5 μl labeled cAMP (30 nM, final concentration), immediately mixed for 15 seconds on a Eppendorf mixmate (2000 rpm) followed by an incubation at room temperature for 90 minutes in the dark. Reaction is stopped by adding of 60 μl binding buffer for FP/cAMP (kit component).
(§10) Each assay plate contained wells with vehicle controls (1% DMSO) for the measurement of non-inhibited reaction (=100% control) and wells without enzyme as 0% controls.

PDE10 = PDE10 (Homo sapiens, UniProt Q9Y233); assay: PDE10 assay with fluorescent substrate (IMAP, fluorescence polarization); format: biochemical
Source text: as §5, §6, §7, §8, §9, §10

[3] = Metabolic stability in pooled liver microsomes; format: in vitro ADME; settings: human liver microsomes, 37° C., 1 mg/mL microsomal protein, test compound 1 μM, NADPH
Procedure: The metabolic stability of the compounds according to the invention has been investigated as follows:
The metabolic degradation of the test compound was assayed at 37° C. with pooled liver microsomes from various species. The final incubation volume of 100 μl per time point contains TRIS buffer pH 7.6 at room temperature (0.1 M), magnesium chloride (5 mM), microsomal protein (1 mg/mL for human and dog, 0.5 mg/mL for other species) and the test compound at a final concentration of 1 μM. Following a short preincubation period at 37° C., the reactions were initiated by addition of betanicotinamide adenine dinucleotide phosphate, reduced form (NADPH, 1 mM), and terminated by transferring an aliquot into solvent after different time points. […] The half-life was determined by the slope of the semi-logarithmic plot of the concentration-time profile.

hERG channel = hERG channel (Homo sapiens, UniProt Q12809); assay: hERG channel assay (whole-cell patch clamp, HEK293 cells transfected with hERG cDNA); format: cell-based; settings: 35° C.
Source text: hERG (Human Ether-à-Go-Go-Related Gene)-Channel Assay
hERG channel inhibition of compounds of the present invention has been investigated as follows:
HEK (human embryonic kidney) 293 cells were stably transfected with hERG cDNA. Cells were superfused with a bath solution containing (mM): NaCl (137), KCl (4.0), MgCl2 (1.0), CaCl2 (1.8), Glucose (10), HEPES (10), pH 7.4 with NaOH. Patch pipettes were made from borosilicate glass tubing using a horizontal puller and filled with pipette solution containing (mM): K-aspartate (130), MgCl2 (5.0), EGTA (5.0), K2ATP (4.0), HEPES (10.0), pH 7.2 with KOH. Resistance of the microelectrodes was in the range between 2 and 5 MΩ.
Stimulation and Recording:
Membrane currents were recorded using an EPC-10 patch clamp amplifier and PatchMaster software. hERG-mediated membrane currents were recorded at 35° C., using the whole-cell configuration of the patch-clamp technique. Transfected HEK293 cells were clamped at a holding potential of −60 mV and hERG-mediated inactivating tail currents were elicited using a pulse pattern with fixed amplitudes (activation/inactivation: 40 mV for 2000 ms; recovery: […]; ramp to 40 mV in 2 ms; inactivating tail current: 40 mV for 50 ms) repeated at 15 s intervals. During each inter-pulse interval 4 pulses scaled down by a factor of 0.2 were recorded for a P/n leak subtraction procedure. […] compensation was employed up to a level that safely allowed recording devoid of ringing.
Compound Preparation and Application:
The different concentrations of the test compound were applied sequentially on each of the different cells investigated. A steady state level of baseline current was measured for at least 6 sweeps prior to the application of the first test compound concentration.
The test compound was dissolved in DMSO to yield a master stock solution which was diluted further in DMSO to stock solutions needed for the lower concentrations. Final dilutions in extracellular buffer were prepared freshly from these stocks by a 1:1000 dilution step each before starting the experiments.
Data analysis and IC50 determination:
Peak current amplitudes were measured 3 ms after the ramp to +40 mV. For baseline and each concentration the peak currents of the three last sweeps before application of the next concentration were averaged. Residual currents ( 1/10) were calculated for each cell as the fraction of actual average peak current and average baseline peak current.
The logistic concentration-response curve of the following form was fitted to the residual current data using a genetic algorithm:
C: actual concentration of compound (in μM) IC50: half-inhibitory concentration (in μM) p: Hill slope

PDE 10A, sequence (Q9Y233 whole entry, species assumed): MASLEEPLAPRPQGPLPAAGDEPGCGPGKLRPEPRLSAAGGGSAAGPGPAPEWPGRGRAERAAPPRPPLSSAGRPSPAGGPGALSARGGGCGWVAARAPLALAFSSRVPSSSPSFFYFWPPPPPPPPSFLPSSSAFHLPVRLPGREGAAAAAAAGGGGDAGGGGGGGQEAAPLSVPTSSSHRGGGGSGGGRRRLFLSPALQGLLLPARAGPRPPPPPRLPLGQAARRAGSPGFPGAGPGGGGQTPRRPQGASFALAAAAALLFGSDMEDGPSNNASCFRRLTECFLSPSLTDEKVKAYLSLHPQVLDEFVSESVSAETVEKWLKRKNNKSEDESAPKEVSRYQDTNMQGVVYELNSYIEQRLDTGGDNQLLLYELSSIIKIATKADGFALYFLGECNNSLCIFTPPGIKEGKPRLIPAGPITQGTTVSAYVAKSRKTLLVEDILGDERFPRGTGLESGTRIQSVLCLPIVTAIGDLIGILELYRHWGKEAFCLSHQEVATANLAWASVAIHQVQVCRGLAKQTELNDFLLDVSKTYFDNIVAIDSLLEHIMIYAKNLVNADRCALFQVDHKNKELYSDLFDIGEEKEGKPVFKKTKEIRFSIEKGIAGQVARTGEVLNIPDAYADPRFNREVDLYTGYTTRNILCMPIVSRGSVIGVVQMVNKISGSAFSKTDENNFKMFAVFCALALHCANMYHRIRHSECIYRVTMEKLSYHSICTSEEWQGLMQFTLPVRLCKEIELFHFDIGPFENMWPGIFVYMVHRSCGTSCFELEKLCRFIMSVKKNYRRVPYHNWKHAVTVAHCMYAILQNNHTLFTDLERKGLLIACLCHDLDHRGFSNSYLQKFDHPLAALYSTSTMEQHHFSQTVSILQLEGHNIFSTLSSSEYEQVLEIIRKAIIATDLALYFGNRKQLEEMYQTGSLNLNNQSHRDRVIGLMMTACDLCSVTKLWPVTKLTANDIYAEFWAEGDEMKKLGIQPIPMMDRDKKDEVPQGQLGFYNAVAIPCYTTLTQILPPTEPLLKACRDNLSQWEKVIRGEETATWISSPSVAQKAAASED
PDE10, sequence (Q9Y233 whole entry, species assumed): as above
T1 sequence (O00408 whole entry, species assumed): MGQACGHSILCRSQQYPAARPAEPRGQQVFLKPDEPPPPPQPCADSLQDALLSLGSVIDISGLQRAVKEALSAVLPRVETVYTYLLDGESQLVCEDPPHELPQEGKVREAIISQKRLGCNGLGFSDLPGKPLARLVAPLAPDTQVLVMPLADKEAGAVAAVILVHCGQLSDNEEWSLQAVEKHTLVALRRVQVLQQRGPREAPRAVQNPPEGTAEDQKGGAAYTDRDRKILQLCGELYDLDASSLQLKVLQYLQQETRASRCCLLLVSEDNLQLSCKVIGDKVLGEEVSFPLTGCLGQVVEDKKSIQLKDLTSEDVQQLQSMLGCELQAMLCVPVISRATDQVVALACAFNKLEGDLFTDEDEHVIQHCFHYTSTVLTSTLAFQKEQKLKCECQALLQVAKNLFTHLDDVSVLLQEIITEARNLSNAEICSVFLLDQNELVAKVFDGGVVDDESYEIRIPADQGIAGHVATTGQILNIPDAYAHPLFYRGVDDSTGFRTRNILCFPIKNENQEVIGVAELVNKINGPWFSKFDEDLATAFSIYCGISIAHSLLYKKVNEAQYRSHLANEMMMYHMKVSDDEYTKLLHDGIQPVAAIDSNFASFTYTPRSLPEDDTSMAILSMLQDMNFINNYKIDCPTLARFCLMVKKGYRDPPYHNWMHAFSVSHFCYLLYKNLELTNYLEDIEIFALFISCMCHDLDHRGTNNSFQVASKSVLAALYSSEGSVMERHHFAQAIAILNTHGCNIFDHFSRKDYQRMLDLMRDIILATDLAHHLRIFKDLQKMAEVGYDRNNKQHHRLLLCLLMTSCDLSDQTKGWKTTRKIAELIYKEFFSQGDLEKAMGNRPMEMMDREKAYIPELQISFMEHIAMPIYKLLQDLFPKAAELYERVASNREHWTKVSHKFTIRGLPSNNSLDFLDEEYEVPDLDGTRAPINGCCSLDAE
hERG channel, sequence (Q12809 whole entry): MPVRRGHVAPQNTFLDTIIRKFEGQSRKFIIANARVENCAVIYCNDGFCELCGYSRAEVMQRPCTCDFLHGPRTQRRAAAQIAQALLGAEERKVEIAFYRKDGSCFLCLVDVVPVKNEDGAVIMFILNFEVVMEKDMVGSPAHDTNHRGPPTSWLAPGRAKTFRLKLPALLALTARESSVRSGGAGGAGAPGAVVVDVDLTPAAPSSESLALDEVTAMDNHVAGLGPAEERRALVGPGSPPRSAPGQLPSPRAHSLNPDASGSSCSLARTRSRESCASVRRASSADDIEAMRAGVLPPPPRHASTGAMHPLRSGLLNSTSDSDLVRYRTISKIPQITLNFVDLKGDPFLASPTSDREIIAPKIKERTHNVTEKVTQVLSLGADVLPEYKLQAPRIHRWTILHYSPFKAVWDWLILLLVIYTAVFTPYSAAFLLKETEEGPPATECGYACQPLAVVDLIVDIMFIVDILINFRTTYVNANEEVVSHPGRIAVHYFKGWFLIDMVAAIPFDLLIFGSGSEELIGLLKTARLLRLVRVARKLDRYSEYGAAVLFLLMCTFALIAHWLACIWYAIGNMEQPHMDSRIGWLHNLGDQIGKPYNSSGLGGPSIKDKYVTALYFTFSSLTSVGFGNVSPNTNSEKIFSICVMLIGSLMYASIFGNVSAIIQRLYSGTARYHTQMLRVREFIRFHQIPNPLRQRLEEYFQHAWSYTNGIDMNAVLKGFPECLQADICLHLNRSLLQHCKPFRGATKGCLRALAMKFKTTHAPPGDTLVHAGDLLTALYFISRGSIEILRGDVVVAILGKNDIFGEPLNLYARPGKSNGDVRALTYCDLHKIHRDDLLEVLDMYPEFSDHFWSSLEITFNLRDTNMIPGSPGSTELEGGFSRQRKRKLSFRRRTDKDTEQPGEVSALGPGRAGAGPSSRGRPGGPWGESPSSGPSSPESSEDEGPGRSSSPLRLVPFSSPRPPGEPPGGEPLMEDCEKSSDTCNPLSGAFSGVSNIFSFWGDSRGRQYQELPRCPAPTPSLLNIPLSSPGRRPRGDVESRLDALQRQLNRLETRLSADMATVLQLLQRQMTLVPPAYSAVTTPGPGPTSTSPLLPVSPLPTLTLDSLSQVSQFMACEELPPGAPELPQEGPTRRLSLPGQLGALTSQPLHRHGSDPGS

Row | Compound | IC50 (PDE2A [1]) [µM] | IC50 (PDE 10A) [µM] | IC50 (PDE2A [2]) [µM] | IC50 (PDE10) [µM] | Half-life - t½ [3] [h] | IC50 (hERG channel) [µM]
1 | Cc1nc2cccnc2n2c(-c3cc(OC4CCC(F)(F)CC4)ccc3Cl)nnc12 [Example 21] | 0.07 | 2.82 | 0.022 | 7.05 | 2.17 | > 10
2 | Cc1ccc2nc(C)c3nnc(-c4cc(OC5CCC(F)(F)CC5)ccc4Cl)n3c2n1 [Example 30] | 0.027 | 3.92 | 0.02 | 2.57 | 2.17 | 
3 | Cc1nc2cccnc2n2c(-c3cc(OCCCO)ccc3Cl)nnc12 [Example 13] | 0.053 | 2.19 | 0.095 | 6.36 | 2.17 | > 10
